Source: patent US11389455B2, “Inhibitors of HIV-1 integrase multimerization” (Institute for Cancer Research, priority 2017, dated 2022)
Read-outs that look alike come from different tables or passages of the source.

What was measured:
[1] = molecular target: T1, Avian Sarcoma Virus integrase (UniProt P03354); assay: Specificity: single end and concerted integration in vitro, ASV integrase; format: biochemical; conditions: Table 6
T1 sequence (P03354 1281-1567): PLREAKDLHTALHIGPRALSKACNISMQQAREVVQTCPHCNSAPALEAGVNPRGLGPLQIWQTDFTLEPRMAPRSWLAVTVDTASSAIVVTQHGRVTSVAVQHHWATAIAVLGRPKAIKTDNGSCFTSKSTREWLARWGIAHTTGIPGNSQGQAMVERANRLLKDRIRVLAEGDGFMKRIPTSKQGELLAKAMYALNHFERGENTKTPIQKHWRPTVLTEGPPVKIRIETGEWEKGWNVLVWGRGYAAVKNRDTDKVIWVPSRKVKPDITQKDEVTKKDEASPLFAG

[2] = molecular target: T2, HIV IN (Wild-type monomer) (Human immunodeficiency virus type 1 group M subtype B, UniProt P04585); format: biochemical, HIV-1; conditions: for I.I.(K Counts) CI/SI: ratio concerted/single end integration counts
T2 construct: 1 uM HIV IN (Wild-type monomer)

[3] = test system: Envelope pseudotyped virus particles infecting HeLa cells; assay: Inhibition of infectivity, single round GFP reporter virus, percent GFP positive cells; conditions: read-out: Infectivity EC50
HeLa cells [4] = test system: HeLa cells
[5] = molecular target: Prototype Foamy Virus (PFV) integrase (Human spumaretrovirus, UniProt P14350); assay: Specificity: single end and concerted integration in vitro, PFV integrase; format: biochemical; conditions: Table 6
HeLa cells [6] = assay: Cell toxicity during the infection experiment (Tox/Infect), 24 hours exposure; conditions: only 24 hours of exposure
[7] = Table 1, cross validation assay at compound concentration of 10 uM
[8] = Table 5, concerted integration, read-out: Concerted IC50
[9] = Table 5, single-end integration, read-out: Single End IC50
[10] = Table 6, read-out: HIV Concerted IC50
[11] = Table 6, read-out: HIV Single End IC50
[12] = HeLa cells, compound exposure for 3 days, preliminary

Cn1ncnc2c(=O)n(C)c(=O)nc1-2 [Formula I-1]
IC50 ([1]; read-out: ASV Concerted IC50): > 100 µM
IC50 ([1]; read-out: ASV Single End IC50): > 100 µM
Relative % concerted integration [2, 7]: 3.84%
IC50 ([2]; Table 1, read-out: IC50 (concerted integration)): 0.2 µM
activity at 0.001 µM ([2]; Table 4, Form F3 (concerted integration), 0.001 uM, read-out: Rel % Activity): 99.6%
activity at 0.005 µM ([2]; Table 4, Form F3 (concerted integration), 0.005 uM, read-out: Rel % Activity): 83.8%
activity at 0.01 µM ([2]; Table 4, Form F3 (concerted integration), 0.01 uM, read-out: Rel % Activity): 92.4%
activity at 0.05 µM ([2]; Table 4, Form F3 (concerted integration), 0.05 uM, read-out: Rel % Activity): 78.2%
activity at 0.1 µM ([2]; Table 4, Form F3 (concerted integration), 0.1 uM, read-out: Rel % Activity): 75.3%
activity at 0.5 µM ([2]; Table 4, Form F3 (concerted integration), 0.5 uM, read-out: Rel % Activity): 17.4%
activity at 1 µM ([2]; Table 4, Form F3 (concerted integration), 1 uM, read-out: Rel % Activity): 6.42%
activity at 5 µM ([2]; Table 4, Form F3 (concerted integration), 5 uM, read-out: Rel % Activity): 0.705%
activity at 10 µM ([2]; Table 4, Form F3 (concerted integration), 10 uM, read-out: Rel % Activity): 0.419%
activity at 50 µM ([2]; Table 4, Form F3 (concerted integration), 50 uM, read-out: Rel % Activity): 0.366%
activity at 100 µM ([2]; Table 4, Form F3 (concerted integration), 100 uM, read-out: Rel % Activity): 0.453%
activity at 500 µM ([2]; Table 4, Form F3 (concerted integration), 500 uM, read-out: Rel % Activity): 0.433%
activity at 1000 µM ([2]; Table 4, Form F3 (concerted integration), 1000 uM, read-out: Rel % Activity): 1.34%
IC50 [2, 8]: 0.2 µM
IC50 [2, 9]: 1.25 µM
IC50 [2, 10]: 0.2 µM
IC50 [2, 11]: 1.25 µM
I.I.(K Counts) CI/SI ([2]; 0.001 uM): 1.336
I.I.(K Counts) CI/SI ([2]; 0.005 uM): 1.067
I.I.(K Counts) CI/SI ([2]; 0.01 uM): 1.193
I.I.(K Counts) CI/SI ([2]; 0.05 uM): 1.007
I.I.(K Counts) CI/SI ([2]; 0.1 uM): 0.978
I.I.(K Counts) CI/SI ([2]; 0.5 uM): 0.331
I.I.(K Counts) CI/SI ([2]; 1 uM): 0.159
I.I.(K Counts) CI/SI ([2]; 5 uM): 0.034
I.I.(K Counts) CI/SI ([2]; 10 uM): 0.022
I.I.(K Counts) CI/SI ([2]; 50 uM): 0.020
I.I.(K Counts) CI/SI ([2]; 100 uM): 0.026
I.I.(K Counts) CI/SI ([2]; 500 uM): 0.033
I.I.(K Counts) CI/SI ([2]; 1000 uM): 0.107
activity at 0.005 µM ([2]; read-out: Rel % Activity): 106%
EC50 [3]: 0.3 µM
Toxicity LD50 (HeLa cells [4]; [12]): 0.43 µM
IC50 ([5]; read-out: PFV Concerted IC50): > 1000 µM
IC50 ([5]; read-out: PFV Single End IC50): > 1000 µM
Tox/Infect LD50 (HeLa cells [6]): >5 µM

Cn1nc(/C=C\c2ccccc2)nc2c(=O)n(C)c(=O)nc1-2 [Formula I-11]
Relative % concerted integration [2, 7]: 1.76%

CCn1nc(-c2ccc(C(F)(F)F)cc2)nc2c(=O)n(C)c(=O)nc1-2 [Formula I-5]
Relative % concerted integration [2, 7]: 0.72%

Cn1nc(-c2ccccc2)nc2c(=O)n(C)c(=O)nc1-2 [Formula I-9]
Relative % concerted integration [2, 7]: 2.73%

CCn1nc(-c2cccs2)nc2c(=O)n(C)c(=O)nc1-2 [Formula I-3]
Relative % concerted integration [2, 7]: 2.07%

Cn1nc(-c2ccc([N+](=O)[O-])cc2)nc2c(=O)n(C)c(=O)nc1-2 [Formula I-12]
Relative % concerted integration [2, 7]: 3.26%

Cn1nc(-c2ccc(F)cc2)nc2c(=O)n(C)c(=O)nc1-2 [Formula I-8]
Relative % concerted integration [2, 7]: 0.42%

CCn1nc(-c2cc(Br)ccc2F)nc2c(=O)n(C)c(=O)nc1-2 [Formula I-4]
Relative % concerted integration [2, 7]: 0.26%

Cc1nnc(C(=O)NC(C)(C)c2nc(C(=O)NCc3ccc(F)cc3)c(O)c(=O)n2C)o1 [RAL, Raltegravir, reference compound]
IC50 ([1]; read-out: ASV Concerted IC50): 0.6 µM
IC50 ([1]; read-out: ASV Single End IC50): 22 µM
EC50 [3]: 0.05 µM
Toxicity LD50 (HeLa cells [4]; [12]): >20 µM
IC50 ([5]; read-out: PFV Concerted IC50): 1 µM
IC50 ([5]; read-out: PFV Single End IC50): < 10 µM
Tox/Infect LD50 (HeLa cells [6]): >10 µM

O=C(CCCCCNc1ccc([N+](=O)[O-])c2nonc12)ON1C(=O)CCC1=O [II-4]
IC50 ([1]; read-out: ASV Concerted IC50): 53 µM
IC50 ([1]; read-out: ASV Single End IC50): 175 µM
IC50 [2, 8]: 16 µM
IC50 [2, 9]: 71 µM
IC50 [2, 10]: 16 µM
IC50 [2, 11]: 65 µM
EC50 [3]: 5 µM
Toxicity LD50 (HeLa cells [4]; [12]): >50 µM
IC50 ([5]; read-out: PFV Concerted IC50): > 390 µM
IC50 ([5]; read-out: PFV Single End IC50): > 350 µM
Tox/Infect LD50 (HeLa cells [6]): >20 µM

CCc1ccc(-c2nc3c(=O)n(C)c(=O)nc-3n(CC)n2)cc1 [Formula I-13]
Relative % concerted integration [2]: 7.07% (IC50 of 0.27 μM)
IC50 ([2]; Concerted IC50): 0.27 µM
IC50 ([2]; IC50 (concerted integration)): 0.27 µM
IC50 ([2]; Single End IC50): 1.4 µM
Toxicity LD50 (HeLa cells [4]; human, 3 days): 3.2 µM

CCn1nc(-c2cc(Br)cs2)nc2c(=O)n(C)c(=O)nc1-2 [Formula I-6]
Relative % concerted integration [2, 7]: 1.72%

CCCc1nc2c(=O)n(C)c(=O)nc-2n(C)n1 [Formula I-7]
Relative % concerted integration [2, 7]: 0.07%

O=C(O)CCCCCNc1ccc([N+](=O)[O-])c2nonc12 [II-2]
IC50 ([2]; Concerted IC50): 500 µM
IC50 ([2]; Single End IC50): > 1000 µM
Toxicity LD50 (HeLa cells [4]; [12]): >50 µM

Nc1ccc(N2CCCCC2)c2nonc12 [II-3]
IC50 ([2]; Concerted IC50): 15 µM
IC50 ([2]; Single End IC50): > 1000 µM
Toxicity LD50 (HeLa cells [4]; human, 3 days): 25 µM

Cn1nc(-c2ccc(C(F)(F)F)cc2)nc2c(=O)n(C)c(=O)nc1-2 [Formula I-10]
Relative % concerted integration [2, 7]: 1.56%

CCn1nc(-c2ccccn2)nc2c(=O)n(C)c(=O)nc1-2 [Formula I-2]
Relative % concerted integration [2, 7]: 6.33%
